From patent US20170281624A1, “COMBINATION THERAPIES OF ALK INHIBITORS” (Novartis AG, priority 2014, published 2017)

How the values were obtained:
[1] = tested on: PD-L1 (CD274) in H3122 cells; experiment: PD-L1 (CD274) expression by TaqMan real time PCR and flow cytometry; type: cell-based, human
Protocol: This example evaluates the effects of selected therapeutic agent LDK378 on PD-L1 (CD274) modulation. LDK378 was examined by real time PCR and flow cytometry on PD-L1 levels.
TaqMan RT PCR assays were developed to detect changes of expression levels of PD-L1 (CD274) in cell lines and xenograft tumors. mRNA was isolated from frozen cell pellets or tumor fragments using the Qiagen RNeasy Mini kit. Isolated RNA was frozen at −80° C. RNA quality was checked and RNA was quantified using a 2100 Agilent Bioanalyzer following the protocol for the Agilent RNA 6000 Nano Kit. cDNA was prepared using a High Capacity RNA-to cDNA Kit (Applied Biosystems).
Real-time PCR reactions were carried out in 20 μl total volume, including 10 μl of Universal PCR master mix (Applied Biosystems), 1 μl of human PD-L1 (CD274) probe/primer set (Applied Biosystems), and 8 μl of cDNA. Each sample was run in triplicate. The amount of cDNA produced from 25-50 ng of RNA in the reverse transcription reaction was used in each PCR reaction. Due to difference in mRNA levels between PD-L1 and GAPDH, the two real-time PCR reactions were done in separate tubes using same amount of cDNA. The real-time PCR reaction was run on the C1000 Thermal Cycle (BioRad) with the cycle program as follows: a 10 minute incubation at 95° C. followed by 40 cycles of 95° C. for 15 seconds and 60° C. for 1 minute. […]

[2] = tested on: ALK-positive NSCLC; experiment: Clinical study of LDK378 in ALK-positive NSCLC patients, 750 mg dose group; type: in vivo, human
[3] = ceritinib trials; cited from earlier work

Cc1cc(Nc2ncc(Cl)c(Nc3ccccc3S(=O)(=O)C(C)C)n2)c(OC(C)C)cc1C1CCNCC1 [LDK378, 5-chloro-N^2-(2-isopropoxy-5-methyl-4-(piperidin-4-yl)phenyl)-N^4-[2-(propane-2-sulfonyl)-phenyl]-pyrimidine-2,4-diamine]
PD-L1 mRNA ([1]; H3122 (NSCLC with ALK translocation) in vitro, FIG. 1): Inhibition | PD-L1 levels on tumor cells ([1]; real time PCR and flow cytometry): Significant inhibition | median progression-free survival (PFS) ([2]; 750 mg, 53.3% of the patients censored): 8.21 months | median time to response ([2]; 144 patients with confirmed CR or PR, 750 mg): 6.1 weeks | overall response rate (ORR) ([2]; 246 ALK-positive NSCLC patients, 750 mg dose group (RD)): 58.5% | ORR ([2]; ALK inhibitor-naïve patients): 66.3% | patients who achieved a response within 12 weeks ([2]; among the 144 patients with confirmed CR or PR, 750 mg): 86.1% | estimated median duration of response (DOR) ([2]; investigator assessment, 750 mg): 9.69 months | ORR ([2]; patients treated with a prior ALK inhibitor): 54.6% | immune-related adverse events [3]: have not been frequently reported
